Experimental findings from US10793525B2, “13-cis-RAMBA retinamides that degrade MNKs for treating cancer” (UNIVERSITY OF MARYLAND, BALTIMORE, priority 2014, dated 2020) are described below.

Data set [1] deals with LNCaP human prostate carcinoma cells. The data set is described as follows: MTT cell proliferation assay, LNCaP. The class given is cell-based. The following applies: SEM < 10%, read-out: GI50s LNCaP. An excerpt: (§1) MCF-7, MDA-MB-231, MDA-MB-468 and SKBR-3 human breast cancer cells and LNCaP, PC-3, and CWR22Rv1 human prostate carcinoma cells (American Type Culture Collection, Manassas, Va., USA) were maintained in RPMI 1640 media (Gibco-Life Technologies, Grand Island, N.Y., USA) supplemented with 10% fetal bovine serum and 1% penicillin/streptomycin. Western blotting was done as mentioned previously,^8, 13b using the following antibodies: AR, Bad, Bax, Bcl-2, eIF4E, Mnk1, Mnk-2, N-cadherin, PARP, peIF4E^ser209 purchased from Cell Signaling Technology, Danvers, Mass., USA. Anti-Mnk2 was purchased from Sigma-Aldrich and normal rabbit IgG, cyclin D1 was from Santa Cruz Biotechnology, CA, USA.
Cells were plated (2500 cells/well) in 96 well plates and treated with or without specified compounds as described previously.^8a, 12b
The clinically relevant retinoids, ATRA and 4-HPR and the Mnk inhibitor, cercosporamide were used as comparators in the assays.
The PC-3 cell line was the least sensitive to all the compounds tested.
On the technique in general: Tetrazolium dyes change colour on reduction, which living cells bring about.

The subject of data set [2] is MDA-MB-231 human breast cancer cells. The data set is described as follows: MTT cell proliferation assay, MDA-MB-231. It is filed as cell-based. The following applies: MDA-MB-231 cells, SEM < 10%, read-out: GI50s MDA-MB-231.
Another data set relates to MDA-MB-231 cells. Briefly: Wound-healing assay, MDA-MB-231 cell migration. It is filed as cell-based, human. The following applies: 5 μM, 24 h. As to the method: Wound healing assay and matrigel invasion assay were also conducted as described previously using highly metastatic PC-3 cells following treatment with 5 μM of RRs for 24 h.^8a,26
Based on previous studies with closely related compound,^8 the inhibitory effects of Compounds 16, 20 and 22 on cell migration were evaluated, using the human metastatic BC cell line, MDA-MB-231 by wound-healing assay. MDA-MB-231 cells (5×10^5 cells/well) were seeded on Boyden chamber, grown to confluence and scratches made at experimental tome zero. The cells were treated with indicated compounds (5 μM each) for 24 h. Representative photomicrographs of initial and final wounds are shown at 100× magnification. […] At 24 hours after cell monolayers were wounded, control cells had completely filled in the scratched area.

Data set [3] deals with MDA-MB-231 xenograft tumors. The data set is described as follows: MDA-MB-231 anti-tumor efficacy study (xenograft). It is filed as in vivo. As to the method: All animal studies were performed according to the guidelines and approval of the Animal Care Committee of the University of Maryland School of Medicine, Baltimore (UMB). Female Athymic Nude mice or male SCID (Charles Rivers Laboratories or UMB facilities) at 4-6 weeks of age were maintained in a pathogen-free environment. MDA-MB-231 (10×10^6) cells were subcutaneously implanted into Athymic Nude mice and CWR22Rv1 (1×10^6) cells into male SCID mice. Mice bearing established tumors (˜100 mm^3) were randomized into treatment groups of 6 and dosed with vehicle (40% β-cyclodexdrin in ddH2O), or compounds 20 and 22 (i.p., formulated in 40% β-cyclodexdrin in ddH2O, once daily, 5 days a week for 28 days).
The National Cancer Institute (NCI) criteria^23 were used to determine tumor growth efficacy of our compounds. Thus, percent test or treatment/control (% T/C), defined as the ratio of the median tumor volume for the treated group versus control group, was calculated as % T/C=[(median tumor volume of treated group at day 28)/(median tumor volume of control group at day 28)]×100.
Indeed, the two compounds were equipotent (FIG. 9A). […] Representative photos of the tumor-bearing mice in the control and the two treatment groups at termination of experiment (day 28) are presented in FIG. 9B.

Data set [4] concerns fAR, AR-V7, Mnk-1, peIF4E and their downstream targets. The data set is described as follows: Molecular analysis of CWR22Rv1 tumors. It is filed as in vivo. The following applies: CWR22Rv1 tumors from treated mice. An excerpt: To assess their in vivo mode of action, we evaluated the effects of Compound 20 on fAR, AR-V7, Mnk-1, peIF4E and their downstream targets.
The test system of data set [5] is fAR, Mnk1/2, peIF4E, cyclin D1 and cleaved PARP. The data set is described as follows: Western blot of lysates from LNCaP cells. The class given is cell-based, human. The following applies: 0.6-20 μM, 24 hours.
Text: as §1
Equal protein concentrations from LNCaP cells treated with Compounds 16, 20 and 22 at different concentrations (0.6-20 μM) for 24 hours were separated by SDS-PAGE and western blots probed with antibodies to fAR, Mnk1/2, peIF4E, cyclin D1 and cleaved PARP. Vehicle treated cells were included as a control and all blots were reprobed for β-actin for loading control.
Background: In western blotting, separated proteins are transferred to a membrane and probed.

Setting [6] is: MDA-MB-231 xenograft mice, i.p. 20 mg/kg 5×/week over 28 days.

On to `CC1=C(/C=C/C(C)=C/C=C/C(C)=C\C(=O)Nc2cccc(F)c2)C(C)(C)CCC1n1ccnc1` (stereo not shown) [Compound 20, (2Z,4E,6E,8E)-9-(3-(1H-imidazol-1-yl)-2,6,6-trimethylcyclohex-1-en-1-yl)-N-(3-fluorophenyl)-3,7-dimethylnona-2,4,6,8-tetraenamide], for which the IC50 in data set [1] turned out to be 2.69 µM. Also, in data set [2], the IC50 was 8.51 µM. For the same compound, the “migration of MDA-MB-231 cells” value in the data set on MDA-MB-231 cells was “significantly inhibited migration”. Besides, in data set [3] (setting [6]), the body weight result is “did not lose body weight” and the “signs of toxicity / adverse events” value is given as “no apparent adverse events”. Further, the “suppression of tumor growth” value in data set [3] (MDA-MB-231 xenografts, i.p. 20 mg/kg 5×/week over 28 days) is listed as 85.4%. Besides, the “% T/C (treated/control median tumor volume)” value in data set [3] (MDA-MB-231 xenografts, i.p. 20 mg/kg 5×/week, day 28) was found to be 14.6%. Besides, in data set [4], the “fAR, AR-V7, Mnk1/2, peIF4E, cyclin D1 and Bcl-2 in tumors” value was “depletion”; the “pro-apoptotic protein Bad in tumors” value was “up-regulation”. For the same compound, in data set [5], the “cleaved PARP (c-PARP)” value is “induced cleaved PARP”; the “cyclin D1” value is given as “significant depletion”; the “expression of total eIF4E” value is listed as “no noticeable effects”; the “expressions of fAR, Mnk1 and Mnk2” value was “significantly and in a dose-dependent fashion, reduced”.
